A value given as a limit tells only on which side of the number the result lay.

Consider 1 compound from patent US20260373132A1, “PERK INHIBITORHC-5404 IN COMBINATION WITH ANTI-PD-1 ANTIBODY AND/OR AN ANTIANGIOGENETIC AGENT FOR USE IN THE TREATMENT OF CANCER” (HIBERCELL, INC., priority 2022, published 2026).

For data set [1], the target named is BLK (Homo sapiens, UniProt P51451). Description: KINOMEScan biochemical panel assay, BLK. Particulars: 1000 nM. It counts as binding. Here is the method:
The selectivity of HC-5404 against the broader kinome was then evaluated using a KINOMEScan biochemical panel assay that measured binding against 468 unique kinases, including 403 wild-type human kinases and 59 mutant isoforms.

Data set [2] can be described thus: mouse plasma protein binding. Particulars: read-out: Mouse plasma protein binding (PPB %) (converted). It counts as in vitro ADME. Here is the method:
Initial in vivo studies aimed at understanding the pharmacokinetic and pharmacodynamic (PK/PD) relationship and optimizing the dosing regimen were conducted. HC-5404 was quantified from mouse plasma following a single oral administration (PO) at doses ranging from 3 to 100 mg/kg. […] Mouse plasma protein binding (PPB %) was determined to be 95.6%, which enabled us to calculate the free drug plasma exposure across time (FIG. 18).

In data set [3] the test system is pPERK in 786-O tumors. Kind of data set: pPERK in 786-O tumor xenografts. It counts as in vivo, mouse.
Data set [4] concerns pPERK in Caki-1 tumors. Kind of data set: pPERK in Caki-1 tumor xenografts. It counts as in vivo, mouse. Here is the method: Samples were put in 500 μL of Novex lysis buffer consisting of 2× Novex Tris-Glycine SDS sample buffer (ThermoFisher LC2676), 1× Phosphatase Inhibitor Cocktail III (Sigma P0044), 1× PhosphataseArrest I (Gbioscience 113P-D), 1×2-mercaptoethanol (Gibco 21985023), 1× Benzonase (EMD Millipore Corp 70746-3), and 1× Protease inhibitor cocktail tablet (Roche/Sigma 11836170001). Samples were homogenized with the Polytron and heated for 10 min at 95 °C. They were then centrifuged at max speed for 10 min and the supernatant was transferred. Protein concentrations of samples were measured using the Pierce 660 nm Protein assay kit (Thermo Scientific 22660) according to the manufacturer's instructions.
Western Blot analysis was performed on the SimpleWestern high-throughput protein analysis platform (ProteinSimple 004-650) according to manufacturer's protocol using a 12-230 kDA Separation Module (ProteinSimple SM-W004) and Total Protein Detection Module (ProteinSimple DM-TP01). Antibodies used were: (Add info for other antibodies used) pPERK (Lilly; 1:50) and PERK (Cell Signaling Technology 5683; 1:200). All protein analytes were normalized to total protein loaded on capillary. […]

The subject of data set [5] is A498 RCC xenograft. Description: A498 RCC xenograft tumor growth. It counts as in vivo, mouse. Here is the method:
Xenograft RCC models were generated as follows: Female NOD.SCID mice (6-8 weeks of age) were injected with A498 RCC cells (5×10^6 cells/mouse), female Balb/c Nude mice (6-8 weeks old) were implanted with 786-O RCC cells (5×10^6 cells/mouse) or Caki-1 RCC cells (6×10^6 cells/mouse), female Athymic Nude-Foxn1nu mice (7-8 weeks of age) were implanted with MFE280 endometrial cells (10×10^6 cells/mouse). Cells were implanted into the flank of animals.
Once tumor tumors reached volume of typically 150-250 mm^3, animals were randomized by tumor volume into the treatment groups of 8 or 10 animals per group. In the single animal trial with RCC PDX models, only one animal per group was enrolled.
Body weight and tumor volume were measured twice weekly. Tumor volume was calculated using the formula [tumor volume (mm^3)=π/6×length×width^2] and plotted as means+SEM. The percentage of tumor growth inhibition was calculated at the end of the study using the formula: […], if ΔT>0, ΔT, mean tumor volume of the drug-treated group on the observation day of the study—mean tumor volume of the drug-treated group on initial day of dosing; ΔC, mean tumor volume of the control group on the observation day of the study—mean tumor volume of the control group on initial day of dosing. Regression was calculated using the formula=100×ΔT/Tinitial, if ΔT<0. Animals with >50% regressions were partial responders. Animals with tumor volume of 0 (no measurable tumor) were considered as complete responders, and animals with <50% tumor regression and 30% growth over the baseline were considered as stable disease. Animals with tumors>30% increase over the baseline were considered progressive disease. The % change in body weight was calculated by the formula (body weight on observation day−body weight on initial day)/body weight on initial day×100%.

For data set [6], the system named is tumor vasculature and pericyte cells of 786-O xenografts progressed on axitinib. Kind of data set: IHC of tumor vasculature and pericytes in 786-O xenografts that progressed on axitinib. It counts as in vivo, mouse. Particulars: 7 days after rerandomization (FIG. 92). Here is the method: Formalin-fixed paraffin-embedded samples were sectioned at 5 μm thickness and mounted on Superfrost Plus microscope slides (Fisher Scientific). All immunohistochemical (IHC) staining was performed on Bond Rx auto-stainer (Leica Biosystems) using the conventional TSA-amplified detection system. Primary antibodies used were as follows: α-CD31 (Abcam #ab182981), α-smooth muscle actin (SMA; Abcam #ab124964), α-Meca32 (Novus Biologicals #NB100-77668). TSA-conjugated Alexa488 and Alexa647 fluorophores from Invitrogen (#B40953 and #B40958) were used at 1:500 dilution. Slides were counterstained with DAPI and cover slipped using Mowiol antifade mounting media (Sigma #D2522).
Slides were imaged with Aperio Versa 200 (Leica Biosystems) whole-slide scanner using 10×/0.32NA objective, and the data were analyzed using custom-written macros in ImageJ/FIJI (NIH). Briefly, 150 μm of outer edges of the tumor sections were eliminated from the analysis. Gaussian-blurred DAPI channel was used to measure the area of the tissue. Scans of […] were processed with median filter to remove noise, then positive areas were measured with appropriate threshold levels. % positive area for each marker was calculated. CD31-SMA double positive areas were measured via image calculation of the binary images. One-way ANOVA and pair-wise comparisons were performed on the data using Prism GraphPad.
After 14 days of treatments, 77 mice bearing the largest tumors were rerandomized into four PD arms (n=8), four efficacy arms (n=10), and 5 tumors sampled on day of rerandomization as a baseline. The remaining animals were removed from study.

For data set [7], the system named is RXF-2667. Description: RCC PDX single animal trial, RXF-2667. It counts as in vivo, mouse. To be noted: HC-5404 30 mg/kg PO BID, n=1. From the text: This example investigated the effect of HC-5404 in combination with VEGFR-TKIs in inhibiting tumor growth using 12 RCC PDX tumor models, following procedures analogous to those described above.
Single animal per group (n=1) trial of animals harboring diverse RCC PDX models were used in this study.

The mark [8] stands for this setting: 30 mg/kg PO BID, seven days (FIG. 30).

BLK, sequence (P51451 whole entry, canonical isoform): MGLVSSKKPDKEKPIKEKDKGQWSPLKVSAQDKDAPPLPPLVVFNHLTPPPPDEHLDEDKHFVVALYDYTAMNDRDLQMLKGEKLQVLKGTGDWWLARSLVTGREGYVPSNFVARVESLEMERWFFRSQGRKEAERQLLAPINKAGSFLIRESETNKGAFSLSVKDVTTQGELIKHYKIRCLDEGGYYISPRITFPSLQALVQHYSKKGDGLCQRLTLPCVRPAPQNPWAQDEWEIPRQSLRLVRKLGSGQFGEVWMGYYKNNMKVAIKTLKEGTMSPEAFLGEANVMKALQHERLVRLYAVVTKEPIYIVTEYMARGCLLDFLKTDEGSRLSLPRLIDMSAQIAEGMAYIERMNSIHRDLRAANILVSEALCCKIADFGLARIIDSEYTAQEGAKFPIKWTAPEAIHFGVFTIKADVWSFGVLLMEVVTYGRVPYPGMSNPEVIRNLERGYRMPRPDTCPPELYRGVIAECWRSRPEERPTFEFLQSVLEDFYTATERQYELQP

By inhibition is commonly meant the relative decrease from the control value, in per cent. Take `Cc1cc(NC(=O)[C@H](O)c2cc(F)cc(F)c2)ccc1-c1cnc(N)c(C(=O)NC(C)C)c1` [HC-5404, (R)-2-amino-5-(4-(2-(3,5-difluorophenyl)-2-hydroxyacetamido)-2-methylphenyl)-N-isopropylnicotinamide]: the “inhibition of BLK” value in data set [1] was “inhibited”. Also, in data set [2], the fraction unbound was 0.044. Besides, the “pPERK expression in 786-O” value in data set [3] (setting [8]) was “strongly inhibited pPERK expression”. Also, the “time of return of pPERK to baseline in 786-O tumors” value in data set [3] (30 mg/kg, post dose) is ≤ 8 h. Further, in data set [3] (DC-101 study, 4 days of treatment (FIG. 37)), the “pPERK levels in 786-O” value is listed as “inhibited the pPERK signal”. Moreover, the inhibition at 30 mg/kg in data set [3] (Mus musculus, 786-0, 30 mg/kg, 1 h post dose) is ~90%. The “VEGFR-TKI-induced pPERK accumulation in 786-O tumors” value in data set [3] (PD arm, 7 days, HC-5404 in combination with VEGFR-TKIs) is on record as “inhibited by the addition of HC-5404”. Moreover, the “pPERK expression in Caki-1” value in data set [4] (setting [8]) is on record as “strongly inhibited pPERK expression”. Also, in data set [4] (DC-101 study, 4 days of treatment, low signal-to-noise (FIG. 37)), the “pPERK levels in Caki-1” value is listed as “not affected”. The TGI in data set [5] (10 and 30 mg/kg PO BID tested, 28 days (FIG. 36)) is reported as ~41%; in data set [5] (single agent: HC-5404 30 mg/kg PO BID or sunitinib 20 mg/kg PO QD (FIG. 31)), ~ 40%. Also, the “proportion of smooth muscle actin (SMA)” value in data set [6] is given as “decreased”. In addition, the “antitumor efficacy as monotherapy” value in data set [7] is reported as “exhibited antitumor efficacy”.
